In ChEMBL document CHEMBL3045632, “Synthetic inhibitors of the fungal detoxifying enzyme brassinin oxidase based on the phytoalexin camalexin scaffold” (J Agric Food Chem, 2009):

Assays:
Plenodomus lingam [1] = assay: Antifungal activity against Leptosphaeria maculans assessed as inhibition of mycelial growth at 0.50 mM relative to control; type: functional
Plenodomus lingam [2] = assay: Inhibition of Leptosphaeria maculans brassinin oxidase assessed as relative protein at 0.10 mM relative to control
Plenodomus lingam [3] = assay: Inhibition of Leptosphaeria maculans brassinin oxidase assessed as relative specific activity at 0.50 mM relative to control
Plenodomus lingam [4] = assay: Inhibition of Leptosphaeria maculans brassinin oxidase activity at 0.30 mM relative to control
Plenodomus lingam [5] = assay: Antifungal activity against Leptosphaeria maculans assessed as inhibition of mycelial growth at 0.10 mM relative to control; type: functional
Plenodomus lingam [6] = assay: Inhibition of Leptosphaeria maculans brassinin oxidase assessed as relative specific activity at 0.20 mM relative to control
Plenodomus lingam [7] = assay: Inhibition of Leptosphaeria maculans brassinin oxidase assessed as relative protein at 0.50 mM relative to control
Plenodomus lingam [8] = assay: Inhibition of Leptosphaeria maculans brassinin oxidase activity at 0.10 mM relative to control
Plenodomus lingam [9] = assay: Antifungal activity against Leptosphaeria maculans assessed as inhibition of mycelial growth at 0.20 mM relative to control; type: functional
Plenodomus lingam [10] = assay: Inhibition of Leptosphaeria maculans brassinin oxidase assessed as relative protein at 0.20 mM relative to control
Plenodomus lingam [11] = assay: Inhibition of Leptosphaeria maculans brassinin oxidase assessed as relative specific activity at 0.10 mM relative to control
[12] = Solubility of the compound at 50 mM; type: physicochemical; conditions: 50000 µM

Row | SMILES | Ratio (Plenodomus lingam [2]) | Ratio (Plenodomus lingam [3]) | inhibition (Plenodomus lingam [4]) | Ratio (Plenodomus lingam [6]) | Ratio (Plenodomus lingam [7]) | inhibition (Plenodomus lingam [8]) | Ratio (Plenodomus lingam [10]) | Ratio (Plenodomus lingam [11]) | solubility [12] | inhibition at 500 µM (Plenodomus lingam [1]) | inhibition at 100 µM (Plenodomus lingam [5]) | inhibition at 200 µM (Plenodomus lingam [9])
1 | c1ccc2c(-c3cnsc3)cccc2c1 | – | – | 21% | – | – | 16% | – | – | – | – | – | –
2 | c1ccc(-c2c[nH]c3ccccc23)cc1 [3-PHENYLINDOLE] | 0.18 | 5.7 | – | 39.2 | 0.1 | – | 0.14 | 30.9 | – | – | 100% | –
3 | Fc1ccc2c(-c3ccccc3)c[nH]c2c1 | – | – | 17% | – | – | 11% | – | – | – | – | – | –
4 | c1ccc2cc(-c3cnsc3)ccc2c1 [2-NAPHTHALENYLISOTHIAZOLE] | 0.26 | 16.3 | 42% | 8.5 | 0.16 | 29% | 0.17 | 2.6 | Insoluble | – | 41% | 53%

The next lines start with results.

Row | Ratio (Plenodomus lingam [2]) | Ratio (Plenodomus lingam [3]) | inhibition (Plenodomus lingam [4]) | Ratio (Plenodomus lingam [6]) | Ratio (Plenodomus lingam [7]) | inhibition (Plenodomus lingam [8]) | Ratio (Plenodomus lingam [10]) | Ratio (Plenodomus lingam [11]) | solubility [12] | SMILES | inhibition at 500 µM (Plenodomus lingam [1]) | inhibition at 100 µM (Plenodomus lingam [5]) | inhibition at 200 µM (Plenodomus lingam [9])
5 | 0.36 | 1.8 | 46% | 4 | 0.24 | 29% | 0.28 | 3.9 | – | Fc1ccc2c(-c3nccs3)c[nH]c2c1 [6-FLUOROCAMALEXIN] | 83% | 29% | 47%
6 | 0.28 | 1.6 | 72% | 5.8 | 0.13 | 51% | 0.24 | 1.7 | – | COc1ccc2[nH]cc(-c3nccs3)c2c1 [5-METHOXYCAMALEXIN] | 100% | 60% | 84%
7 | 0.27 | 4 | 63% | 3.7 | 0.11 | 41% | 0.16 | 2.3 | – | COc1ccc2c(-c3nccs3)c[nH]c2c1 [6-METHOXYCAMALEXIN] | 100% | 17% | 78%
8 | 0.35 | 4.9 | 25% | 4.1 | 0.06 | 16% | 0.28 | 1.9 | – | c1ccc2[nH]c(-c3cscn3)nc2c1 [THIABENDAZOLE] | – | 100% | –
9 | 0.3 | 7.9 | 63% | 4.9 | 0.19 | 47% | 0.23 | 5 | – | Fc1ccc2[nH]cc(-c3nccs3)c2c1 [5-FLUOROCAMALEXIN] | 100% | 76% | 81%
10 | 0.28 | 2.5 | 53% | 6.9 | 0.1 | 30% | 0.24 | 4.5 | – | c1ccc2c(-c3nccs3)c[nH]c2c1 [CAMALEXIN] | 100% | 35% | 65%
